From the supplement of paper PMC10307832

Tests used:
Assay in all cases: relative viability (nuclei count vs DMSO), 5 days (fraction); higher = more cells survive
NCI-H1395 = test system: NCI-H1395
How it was run: (§1)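 Relative viability is defined as nuclei in treated wells over nuclei in vehicle wells. Duplicate plates were run and medians reported. Lung cancer cell lines in 1536-well plates were dosed by pin tool one day after seeding, with one drug or with a fixed anchor-drug dose plus five library-drug doses (not always all listed) in √10 steps, and nuclei were counted after 5 days.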

PC-14 = test system: PC-14
How it was run: as §1

NCI-H441 = test system: NCI-H441
How it was run: as §1

NCI-H1975 = test system: NCI-H1975
How it was run: as §1

A-427 = test system: A-427
How it was run: as §1

NCI-H838 = test system: NCI-H838
How it was run: as §1

LXF-289 = test system: LXF-289
How it was run: as §1

RERF-LC-KJ = test system: RERF-LC-KJ
How it was run: as §1

HCC-44 = test system: HCC-44
How it was run: as §1

H3255 = test system: H3255
How it was run: as §1

NCI-H2405 = test system: NCI-H2405
How it was run: as §1

NCI-H2170 = test system: NCI-H2170
How it was run: as §1

NCI-H2347 = test system: NCI-H2347
How it was run: as §1

HCC-366 = test system: HCC-366
How it was run: as §1

HARA = test system: HARA
How it was run: as §1

NCI-H1915 = test system: NCI-H1915
How it was run: as §1

LCLC-97TM1 = test system: LCLC-97TM1
How it was run: as §1

NCI-H1755 = test system: NCI-H1755
How it was run: as §1

NCI-H3122 = test system: NCI-H3122
How it was run: as §1

NCI-H1993 = test system: NCI-H1993
How it was run: as §1

C=C1C(=O)O[C@@H](CCCCCCCC)[C@@H]1C(=O)O [C-75] + NC(=O)Nc1cc(-c2cccc(F)c2)sc1C(=O)N[C@H]1CCCNC1 [AZD7762] (partner 0.2 µM)
relative viability (NCI-H1395; first compound 0.08 µM): 0.358
relative viability (NCI-H1395; first compound 0.253 µM): 0.386
relative viability (NCI-H1395; first compound 2.53 µM): 0.4
relative viability (NCI-H1395; first compound 8 µM): 0.413
relative viability (PC-14; first compound 0.08 µM): 0.358
relative viability (PC-14; first compound 0.8 µM): 0.243
relative viability (PC-14; first compound 2.53 µM): 0.328
relative viability (PC-14; first compound 8 µM): 0.319
relative viability (NCI-H441; first compound 0.08 µM): 1.26
relative viability (NCI-H441; first compound 0.253 µM): 1.3
relative viability (NCI-H441; first compound 0.8 µM): 1.05
relative viability (NCI-H441; first compound 8 µM): 1.06
relative viability (NCI-H1975; first compound 0.08 µM): 0.771
relative viability (NCI-H1975; first compound 0.253 µM): 0.556
relative viability (NCI-H1975; first compound 0.8 µM): 0.623
relative viability (NCI-H1975; first compound 2.53 µM): 0.667
relative viability (NCI-H1975; first compound 8 µM): 0.78
relative viability (A-427; first compound 0.08 µM): 0.698
relative viability (A-427; first compound 0.253 µM): 0.825
relative viability (A-427; first compound 0.8 µM): 0.537
relative viability (A-427; first compound 2.53 µM): 0.72
relative viability (A-427; first compound 8 µM): 0.536
relative viability (NCI-H838; first compound 0.08 µM): 0.89
relative viability (NCI-H838; first compound 0.253 µM): 0.752
relative viability (NCI-H838; first compound 0.8 µM): 0.943
relative viability (NCI-H838; first compound 2.53 µM): 0.865
relative viability (NCI-H838; first compound 8 µM): 0.891
relative viability (LXF-289; first compound 0.08 µM): 1.07
relative viability (LXF-289; first compound 0.253 µM): 1.21
relative viability (LXF-289; first compound 0.8 µM): 1.02
relative viability (LXF-289; first compound 2.53 µM): 1.07
relative viability (LXF-289; first compound 8 µM): 1.21
relative viability (RERF-LC-KJ; first compound 0.08 µM): 0.946
relative viability (RERF-LC-KJ; first compound 0.253 µM): 1.16
relative viability (RERF-LC-KJ; first compound 0.8 µM): 0.824
relative viability (RERF-LC-KJ; first compound 2.53 µM): 0.925
relative viability (RERF-LC-KJ; first compound 8 µM): 1.09
relative viability (HCC-44; first compound 0.08 µM): 1.03
relative viability (HCC-44; first compound 0.253 µM): 1.05
relative viability (HCC-44; first compound 0.8 µM): 0.999
relative viability (HCC-44; first compound 2.53 µM): 0.953
relative viability (HCC-44; first compound 8 µM): 1.08
relative viability (H3255; first compound 0.08 µM): 0.847
relative viability (H3255; first compound 0.253 µM): 0.893
relative viability (H3255; first compound 0.8 µM): 0.774
relative viability (H3255; first compound 2.53 µM): 0.885
relative viability (H3255; first compound 8 µM): 0.865
relative viability (NCI-H2405; first compound 0.08 µM): 0.689
relative viability (NCI-H2405; first compound 0.253 µM): 0.4
relative viability (NCI-H2405; first compound 0.8 µM): 0.831
relative viability (NCI-H2405; first compound 2.53 µM): 0.67
relative viability (NCI-H2405; first compound 8 µM): 0.764
relative viability (NCI-H2170; first compound 0.08 µM): 0.945
relative viability (NCI-H2170; first compound 0.253 µM): 1.1
relative viability (NCI-H2170; first compound 0.8 µM): 0.858
relative viability (NCI-H2170; first compound 2.53 µM): 0.737
relative viability (NCI-H2170; first compound 8 µM): 0.887
relative viability (NCI-H2347; first compound 0.08 µM): 0.725
relative viability (NCI-H2347; first compound 0.253 µM): 1
relative viability (NCI-H2347; first compound 0.8 µM): 0.715
relative viability (NCI-H2347; first compound 2.53 µM): 0.705
relative viability (NCI-H2347; first compound 8 µM): 0.665
relative viability (HCC-366; first compound 0.08 µM): 0.271
relative viability (HCC-366; first compound 0.253 µM): 0.306
relative viability (HCC-366; first compound 0.8 µM): 0.227
relative viability (HCC-366; first compound 2.53 µM): 0.152
relative viability (HCC-366; first compound 8 µM): 0.52
relative viability (HARA; first compound 0.08 µM): 0.568
relative viability (HARA; first compound 0.253 µM): 0.469
relative viability (HARA; first compound 0.8 µM): 0.213
relative viability (HARA; first compound 2.53 µM): 0.447
relative viability (HARA; first compound 8 µM): 0.722
relative viability (NCI-H1915; first compound 0.08 µM): 0.716
relative viability (NCI-H1915; first compound 0.253 µM): 0.683
relative viability (NCI-H1915; first compound 0.8 µM): 0.739
relative viability (NCI-H1915; first compound 2.53 µM): 0.621
relative viability (NCI-H1915; first compound 8 µM): 0.79
relative viability (LCLC-97TM1; first compound 0.08 µM): 0.248
relative viability (LCLC-97TM1; first compound 0.253 µM): 0.581
relative viability (LCLC-97TM1; first compound 0.8 µM): 0.218
relative viability (LCLC-97TM1; first compound 2.53 µM): 0.254
relative viability (LCLC-97TM1; first compound 8 µM): 0.833
relative viability (NCI-H1755; first compound 0.08 µM): 0.42
relative viability (NCI-H1755; first compound 0.253 µM): 0.473
relative viability (NCI-H1755; first compound 0.8 µM): 0.397
relative viability (NCI-H1755; first compound 2.53 µM): 0.405
relative viability (NCI-H1755; first compound 8 µM): 0.416
relative viability (NCI-H3122; first compound 0.08 µM): 1.03
relative viability (NCI-H3122; first compound 0.253 µM): 1.09
relative viability (NCI-H3122; first compound 0.8 µM): 0.951
relative viability (NCI-H3122; first compound 2.53 µM): 0.883
relative viability (NCI-H3122; first compound 8 µM): 1.03
relative viability (NCI-H1993; first compound 0.08 µM): 0.959
relative viability (NCI-H1993; first compound 0.253 µM): 0.998
relative viability (NCI-H1993; first compound 0.8 µM): 0.772
relative viability (NCI-H1993; first compound 2.53 µM): 0.687
relative viability (NCI-H1993; first compound 8 µM): 0.685
